Each compound was assayed against T1, ENaC (Epithelial Sodium Channel) (Mus musculus, UniProt Q61180+Q9WU38+Q9WU39) (assay: Ussing Chamber assay (amiloride sensitive short circuit current in M-1 cells)). Conditions: Mouse kidney M-1 cells, apical administration, 37° C.
T1 sequence (Q61180 1-699): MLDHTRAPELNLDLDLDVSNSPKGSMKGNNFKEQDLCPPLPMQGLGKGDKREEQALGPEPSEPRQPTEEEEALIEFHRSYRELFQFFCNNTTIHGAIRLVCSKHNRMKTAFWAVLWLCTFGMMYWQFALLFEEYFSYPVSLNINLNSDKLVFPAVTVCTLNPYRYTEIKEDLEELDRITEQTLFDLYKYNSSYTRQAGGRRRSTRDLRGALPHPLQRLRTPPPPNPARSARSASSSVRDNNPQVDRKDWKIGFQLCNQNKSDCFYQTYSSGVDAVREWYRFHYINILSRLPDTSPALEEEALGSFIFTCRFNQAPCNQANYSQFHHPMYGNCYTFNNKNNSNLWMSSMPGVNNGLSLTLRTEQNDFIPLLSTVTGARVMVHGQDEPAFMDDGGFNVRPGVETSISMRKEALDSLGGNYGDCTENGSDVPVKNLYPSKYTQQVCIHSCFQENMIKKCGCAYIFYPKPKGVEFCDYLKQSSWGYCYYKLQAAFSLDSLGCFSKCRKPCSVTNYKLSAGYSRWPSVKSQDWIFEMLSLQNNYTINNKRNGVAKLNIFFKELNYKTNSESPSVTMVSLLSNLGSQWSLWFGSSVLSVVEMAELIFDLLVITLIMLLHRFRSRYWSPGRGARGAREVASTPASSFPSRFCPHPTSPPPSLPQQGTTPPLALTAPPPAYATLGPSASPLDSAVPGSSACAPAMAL
T1 sequence (Q9WU38 1-638): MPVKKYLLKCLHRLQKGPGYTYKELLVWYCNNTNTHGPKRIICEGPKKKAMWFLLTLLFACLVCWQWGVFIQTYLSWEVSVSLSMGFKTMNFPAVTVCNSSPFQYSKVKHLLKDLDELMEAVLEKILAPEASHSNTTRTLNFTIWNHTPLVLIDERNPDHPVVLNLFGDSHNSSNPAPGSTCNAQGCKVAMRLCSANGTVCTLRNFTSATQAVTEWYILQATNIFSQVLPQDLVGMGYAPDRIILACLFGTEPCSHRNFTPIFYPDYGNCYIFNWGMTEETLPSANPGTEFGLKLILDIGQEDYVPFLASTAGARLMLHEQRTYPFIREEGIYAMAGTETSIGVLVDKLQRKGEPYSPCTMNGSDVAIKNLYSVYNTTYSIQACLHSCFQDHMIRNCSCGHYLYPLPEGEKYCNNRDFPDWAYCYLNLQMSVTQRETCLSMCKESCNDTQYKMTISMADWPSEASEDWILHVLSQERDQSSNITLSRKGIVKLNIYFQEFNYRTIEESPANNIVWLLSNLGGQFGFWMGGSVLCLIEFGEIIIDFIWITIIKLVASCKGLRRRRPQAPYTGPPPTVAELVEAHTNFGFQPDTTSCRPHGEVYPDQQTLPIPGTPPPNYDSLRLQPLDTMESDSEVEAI
T1 sequence (Q9WU39 1-655): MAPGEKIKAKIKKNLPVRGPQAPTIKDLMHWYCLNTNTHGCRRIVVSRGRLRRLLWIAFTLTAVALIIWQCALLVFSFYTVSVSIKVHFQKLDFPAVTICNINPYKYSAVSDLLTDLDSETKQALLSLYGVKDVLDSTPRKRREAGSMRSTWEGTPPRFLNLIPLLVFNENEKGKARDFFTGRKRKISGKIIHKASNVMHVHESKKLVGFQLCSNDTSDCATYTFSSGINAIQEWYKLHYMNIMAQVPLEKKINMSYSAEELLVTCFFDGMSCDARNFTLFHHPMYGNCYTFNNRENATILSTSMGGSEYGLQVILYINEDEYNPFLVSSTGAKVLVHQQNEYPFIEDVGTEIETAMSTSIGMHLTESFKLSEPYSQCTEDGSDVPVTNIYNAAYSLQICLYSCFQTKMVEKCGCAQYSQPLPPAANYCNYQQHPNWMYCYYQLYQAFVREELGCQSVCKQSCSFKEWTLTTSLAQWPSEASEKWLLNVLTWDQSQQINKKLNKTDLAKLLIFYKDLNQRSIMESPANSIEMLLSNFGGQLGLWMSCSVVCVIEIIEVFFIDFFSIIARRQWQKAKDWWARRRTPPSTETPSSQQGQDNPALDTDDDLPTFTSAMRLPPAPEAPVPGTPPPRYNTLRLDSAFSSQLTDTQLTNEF
Format: cell-based
Experimental: The IC50 values of the example compounds given above were determined in the Ussing Chamber assay. Ussing Chamber: Mouse kidney M-1 cells were cultivated in DMEM containing 5% FCS and 5 μM dexamethasone for 10 to 12 days on polyester transwell filters. Filters were inserted into a teflon-coated well-plate which fit into the ussing chamber system. Prior to measurement the medium of M-1 cells was replaced with Caco-2 transport buffer (Invitrogen, Germany). During measurements, the Ussing chamber temperature was kept at 37° C. Short circuit currents (I_sc) were measured in the voltage-clamp mode with the software package Lab View for data acquisition and analysis. The transepithelial electrical resistance (TEER) was determined by the application of voltage steps of ±5 mV every 5 sec. Compounds were administered at a final concentration of 3 μM or at increasing concentrations (1-3-10 μM) to the apical solution. At the end of each experiment the amiloride sensitive I_SC was measured by adding 3 μM amiloride to the apical compartment. Results are expressed as inhibition in percent of the amiloride effect or as IC50. With the example compounds given above, the following IC50 values were determined in the Ussing Chamber assay: […]

| Compound | IC50 [nM] |
| --- | --- |
| CCn1c(CNC(=O)c2nc(Cl)cnc2N)[n+](CC)c2ccc(C(=O)N3CCNCC3)cc21 [Example 1.01] | 7 |
| CCn1c(CNC(=O)c2nc(Cl)cnc2N)[n+](CC)c2ccc(C(=O)N(C)CCCNC)cc21 [Example 1.02] | 4 |
| CCn1c(CNC(=O)c2nc(Cl)cnc2N)[n+](CC)c2ccc(C(=O)NCCN3CCOCC3)cc21 [Example 1.03] | 7 |
| CCn1c(CNC(=O)c2nc(Cl)cnc2N)[n+](CC)c2ccc(C(=O)NCCCNC)cc21 [Example 1.04] | 3 |
| CCn1c(CNC(=O)c2nc(Cl)cnc2N)[n+](CC)c2ccc(C(=O)N(CCN)CC(C)C)cc21 [Example 1.05] | 8 |
| CCn1c(CNC(=O)c2nc(Cl)cnc2N)[n+](CC)c2ccc(C(=O)NCCN(C)C)cc21 [Example 1.06] | 4 |
| CCn1c(CNC(=O)c2nc(Cl)cnc2N)[n+](CC)c2ccc(C(=O)N3CCN(C)CC3)cc21 [Example 1.07] | 5 |
| CCn1c(CNC(=O)c2nc(Cl)cnc2N)[n+](CC)c2ccc(C(=O)NCCNC)cc21 [Example 1.08] | 6 |
| CCn1c(CNC(=O)c2nc(Cl)cnc2N)[n+](CC)c2ccc(C(=O)NC[C@H](O)[C@@H](O)[C@H](O)[C@H](O)CO)cc21 [Example 1.09] | 6 |
| CCn1c(CNC(=O)c2nc(Cl)cnc2N)[n+](CC)c2ccc(C(=O)NCCCN)cc21 [Example 1.10] | 4 |
| CCn1c(CNC(=O)c2nc(Cl)cnc2N)[n+](CC)c2ccc(C(=O)N3CCC(NC(=O)CN(C)C)CC3)cc21 [Example 1.11] | 5 |
| CCn1c(CNC(=O)c2nc(Cl)cnc2N)[n+](CC)c2cc(C(=O)N3CCC(N(C)C)CC3)ccc21 [Example 1.12] | 4 |
| CCn1c(CNC(=O)c2nc(Cl)cnc2N)[n+](CC)c2ccc(C(=O)N(CCN)CCN)cc21 [Example 1.13] | 7 |
| CCn1c(CNC(=O)c2nc(Cl)cnc2N)[n+](CC)c2ccc(C(=O)N(C)CCNC)cc21 [Example 1.14] | 4 |
| CCn1c(CNC(=O)c2nc(Cl)cnc2N)[n+](CC)c2ccc(C(=O)N(C)CCN3CCOCC3)cc21 [Example 1.15] | 6 |
| CCn1c(CNC(=O)c2nc(Cl)cnc2N)[n+](CC)c2cc(C(=O)N3CCN(CP(C)(C)=O)CC3)ccc21 [Example 1.16] | 12 |
| CCn1c(CNC(=O)c2nc(Cl)cnc2N)[n+](CC)c2ccc(C(=O)N(C)CCCN(C)C)cc21 [Example 1.17] | 7 |
| CCCCN1CCN(C(=O)c2ccc3c(c2)[n+](CC)c(CNC(=O)c2nc(Cl)cnc2N)n3CC)CC1 [Example 1.18] | 5 |
| CCn1c(CNC(=O)c2nc(Cl)cnc2N)[n+](CC)c2ccc(C(=O)N3CCCNCC3)cc21 [Example 1.19] | 4 |
| CCn1c(CNC(=O)c2nc(Cl)cnc2N)[n+](CC)c2ccc(C(=O)N(C)CCN(C)C)cc21 [Example 1.20] | 6 |
| CCn1c(CNC(=O)c2nc(Cl)cnc2N)[n+](CC)c2ccc(C(=O)N3CCC(NC(=O)CN)CC3)cc21 [Example 1.21] | 5 |
| CCn1c(CNC(=O)c2nc(Cl)cnc2N)[n+](CC)c2cc(C(=O)NCCOCP(C)(C)=O)ccc21 [Example 1.22] | 13 |

Reference: patent publication US9938256B2, “Annelated benzamides” (Boehringer Ingelheim International GmbH, priority 2015, dated 2018)
